Tests used:
NDM-1 [1] = target: T1, NDM-1 (Klebsiella pneumoniae, UniProt C7C422); test: biochemical; conditions: cleavage of imipenem (100 uM) by NDM-1; read-out: Ki, Imipenem
NDM-1 [2] = target: T1, NDM-1; test: Inhibition of purified class B carbapenemase NDM-1 (Ki, imipenem substrate); assay type: biochemical; conditions: NDM-1, substrate imipenem; read-out: Ki NDM-1, Imipenem
VIM-1 = target: T2, VIM-1 (Pseudomonas aeruginosa, UniProt A0A0F7KYQ8); test: biochemical; conditions: cleavage of nitrocefin (200 uM) by VIM-1 supernatant
T2 construct: made in house; host or cells: ECM6711 strain carrying pUCP24-VIM-1 plasmid; culture supernatant used unpurified

[3] = target: purified class A, C and D enzymes (Escherichia coli, UniProt Q9L5C7); assay type: biochemical; conditions: purified CTX-M-14; nitrocefin reporter substrate
Chain of purified class A, C and D enzymes (Escherichia coli, UniProt Q9L5C7) (Q9L5C7 entry or part of it): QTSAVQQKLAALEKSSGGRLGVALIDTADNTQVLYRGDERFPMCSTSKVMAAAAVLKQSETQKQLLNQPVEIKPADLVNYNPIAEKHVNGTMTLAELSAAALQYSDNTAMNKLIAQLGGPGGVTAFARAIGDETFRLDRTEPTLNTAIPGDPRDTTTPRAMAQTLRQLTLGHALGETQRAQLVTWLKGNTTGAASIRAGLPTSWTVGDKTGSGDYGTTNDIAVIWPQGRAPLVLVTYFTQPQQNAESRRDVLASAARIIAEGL

[4] = target: T3, purified class A, C and D enzymes (UniProt Q6XEC0); assay type: biochemical; conditions: read-out: Ki (OXA-48, NCF); purified OXA-48; nitrocefin reporter substrate
T3 construct: rows headed: Ki (OXA-48, NCF); other: purified OXA-48; nitrocefin reporter substrate

[5] = target: purified class A, C and D enzymes (Enterobacter cloacae, UniProt P05364); assay type: biochemical; conditions: purified P99/AmpC of ECL; nitrocefin reporter substrate
Chain of purified class A, C and D enzymes (Enterobacter cloacae, UniProt P05364) (P05364 21-381): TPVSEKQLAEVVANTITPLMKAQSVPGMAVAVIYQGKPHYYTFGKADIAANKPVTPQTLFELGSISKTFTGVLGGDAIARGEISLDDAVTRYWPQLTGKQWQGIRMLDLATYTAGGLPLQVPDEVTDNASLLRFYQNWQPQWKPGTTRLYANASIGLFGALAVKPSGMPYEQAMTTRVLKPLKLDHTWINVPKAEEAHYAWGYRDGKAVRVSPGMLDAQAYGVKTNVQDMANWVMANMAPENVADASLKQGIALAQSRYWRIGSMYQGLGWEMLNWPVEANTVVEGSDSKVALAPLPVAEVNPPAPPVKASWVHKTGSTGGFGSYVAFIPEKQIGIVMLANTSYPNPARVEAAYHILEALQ

[6] = target: T4, purified class A, C and D enzymes (UniProt Q9F663); assay type: biochemical; conditions: read-out: Ki (KPC-2, NCF); purified KPC-2; nitrocefin reporter substrate
T4 construct: rows headed: Ki (KPC-2, NCF); other: purified KPC-2; nitrocefin reporter substrate

[7] = target: T5, purified class A, C and D enzymes (UniProt P0AD64, L31Q/G234S/E235K, species not given); assay type: biochemical; conditions: read-out: Ki (SHV-12, NCF); purified SHV-12; nitrocefin reporter substrate
T5 construct: Ki (SHV-12, NCF); other: purified SHV-12; nitrocefin reporter substrate
T5 sequence (P0AD64 1-286 L31Q/G234S/E235K): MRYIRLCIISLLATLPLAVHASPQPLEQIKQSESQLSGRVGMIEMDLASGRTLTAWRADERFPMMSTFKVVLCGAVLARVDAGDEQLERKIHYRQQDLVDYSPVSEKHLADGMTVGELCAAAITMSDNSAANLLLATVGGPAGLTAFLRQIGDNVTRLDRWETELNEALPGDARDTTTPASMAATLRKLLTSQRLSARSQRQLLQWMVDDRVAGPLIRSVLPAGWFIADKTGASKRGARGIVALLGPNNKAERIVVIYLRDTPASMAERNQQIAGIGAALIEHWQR

T1 sequence (C7C422 29-270, looked up, species assumed): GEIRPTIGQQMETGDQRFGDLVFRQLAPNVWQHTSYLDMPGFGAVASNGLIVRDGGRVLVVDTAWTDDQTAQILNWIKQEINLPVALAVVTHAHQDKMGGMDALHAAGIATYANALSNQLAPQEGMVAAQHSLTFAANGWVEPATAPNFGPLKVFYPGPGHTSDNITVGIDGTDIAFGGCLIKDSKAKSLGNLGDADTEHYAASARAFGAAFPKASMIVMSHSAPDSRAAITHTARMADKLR

Row | SMILES | Ki (NDM-1 [1]) | Ki (NDM-1 [2]) | IC50 (VIM-1) | Ki (CTX-M-14, NCF) [3] | Ki [4] | Ki (P99/AmpC of ECL, NCF) [5] | Ki [6] | Ki [7]
1 | COc1ccc2c(c1C(=O)O)OB(O)[C@@H](Sc1nnc(C(F)(F)F)n1N)C2 [Compound 64, (3R)-3-[[4-amino-5-(trifluoromethyl)-1,2,4-triazol-3-yl]sulfanyl]-2-hydroxy-7-methoxy-3,4-dihydro-1,2-benzoxaborinine-8-carboxylic acid] | > 100 nM | > 100 nM | < 1000 nM | X (Less than 0.1 μM) | < 100 nM | Z (Greater than 1 μM) | 100 to 1000 nM | < 100 nM
2 | COc1ccc2c(c1C(=O)O)OB(O)[C@@H](SC1CN(C3=NCCS3)C1)C2 [Compound 65, (3R)-3-[1-(4,5-dihydrothiazol-2-yl)azetidin-3-yl]sulfanyl-2-hydroxy-7-methoxy-3,4-dihydro-1,2-benzoxaborinine-8-carboxylic acid] | > 100 nM | > 100 nM | ≥ 1000 nM | X (Less than 0.1 μM) | < 100 nM | Z (Greater than 1 μM) | < 100 nM | < 100 nM
3 | COc1ccc2c(c1C(=O)O)OB(O)[C@@H](Sc1nnc(CN)n1N)C2 [Compound 66, (3R)-3-[[4-amino-5-(aminomethyl)-1,2,4-triazol-3-yl]sulfanyl]-2-hydroxy-7-methoxy-3,4-dihydro-1,2-benzoxaborinine-8-carboxylic acid] | 10 to 100 nM | 10 to 100 nM | < 1000 nM | X (Less than 0.1 μM) | 100 to 1000 nM | Z (Greater than 1 μM) | 100 to 1000 nM | < 100 nM
4 | COc1ccc2c(c1C(=O)O)OB(O)[C@@H](Sc1nnc(SCC(=N)N)s1)C2 [Compound 67, (3R)-3-[[5-(2-amino-2-imino-ethyl)sulfanyl-1,3,4-thiadiazol-2-yl]sulfanyl]-2-hydroxy-7-methoxy-3,4-dihydro-1,2-benzoxaborinine-8-carboxylic acid] | < 10 nM | < 10 nM | < 1000 nM | X (Less than 0.1 μM) | < 100 nM | Y (0.1 μM to 1 μM) | 100 to 1000 nM | < 100 nM
5 | COc1ccc2c(c1C(=O)O)OB(O)[C@@H](Sc1nnc(SCCN3CCNCC3)s1)C2 [Compound 68, (3R)-2-hydroxy-7-methoxy-3-[[5-(2-piperazin-1-ylethylsulfanyl)-1,3,4-thiadiazol-2-yl]sulfanyl]-3,4-dihydro-1,2-benzoxaborinine-8-carboxylic acid] | > 100 nM | > 100 nM | < 1000 nM | X (Less than 0.1 μM) | < 100 nM | Y (0.1 μM to 1 μM) | 100 to 1000 nM | < 100 nM
6 | COc1ccc2c(c1C(=O)O)OB(O)[C@@H](Sc1cncs1)C2 [Compound 69, (3R)-2-hydroxy-7-methoxy-3-thiazol-5-ylsulfanyl-3,4-dihydro-1,2-benzoxaborinine-8-carboxylic acid] | > 100 nM | > 100 nM | < 1000 nM | X (Less than 0.1 μM) | < 100 nM | Y (0.1 μM to 1 μM) | < 100 nM | < 100 nM
7 | COc1ccc2c(c1C(=O)O)OB(O)[C@@H](Sc1nnc[nH]1)C2 [Compound 70, (3R)-2-hydroxy-7-methoxy-3-(4H-1,2,4-triazol-3-ylsulfanyl)-3,4-dihydro-1,2-benzoxaborinine-8-carboxylic acid] | 10 to 100 nM | 10 to 100 nM | < 1000 nM | X (Less than 0.1 μM) | < 100 nM | Y (0.1 μM to 1 μM) | 100 to 1000 nM | < 100 nM
8 | COc1ccc2c(c1C(=O)O)OB(O)[C@@H](Sc1nnc(CN3CCNCC3)n1N)C2 [Compound 71, (3R)-3-[[4-amino-5-(piperazin-1-ylmethyl)-1,2,4-triazol-3-yl]sulfanyl]-2-hydroxy-7-methoxy-3,4-dihydro-1,2-benzoxaborinine-8-carboxylic acid] | 10 to 100 nM | 10 to 100 nM | < 1000 nM | X (Less than 0.1 μM) | 100 to 1000 nM | Z (Greater than 1 μM) | 100 to 1000 nM | < 100 nM
9 | COc1ccc2c(c1C(=O)O)OB(O)[C@@H](SCCN1CCNCC1)C2 [Compound 72, (3R)-2-hydroxy-7-methoxy-3-(2-piperazin-1-ylethylsulfanyl)-3,4-dihydro-1,2-benzoxaborinine-8-carboxylic acid] | > 100 nM | > 100 nM | < 1000 nM | X (Less than 0.1 μM) | < 100 nM | Y (0.1 μM to 1 μM) | < 100 nM | < 100 nM
10 | COc1ccc2c(c1C(=O)O)OB(O)[C@@H](Sc1nncn1CCCCN)C2 [Compound 73, (3R)-3-[[4-(4-aminobutyl)-1,2,4-triazol-3-yl]sulfanyl]-2-hydroxy-7-methoxy-3,4-dihydro-1,2-benzoxaborinine-8-carboxylic acid] | 10 to 100 nM | 10 to 100 nM | < 1000 nM | X (Less than 0.1 μM) | < 100 nM | Z (Greater than 1 μM) | 100 to 1000 nM | < 100 nM
11 | COc1ccc2c(c1C(=O)O)OB(O)[C@@H](Sc1nc(N)ns1)C2 [Compound 74, (3R)-3-[(3-amino-1,2,4-thiadiazol-5-yl)sulfanyl]-2-hydroxy-7-methoxy-3,4-dihydro-1,2-benzoxaborinine-8-carboxylic acid] | > 100 nM | > 100 nM | < 1000 nM | X (Less than 0.1 μM) | < 100 nM | Y (0.1 μM to 1 μM) | < 100 nM | < 100 nM
12 | COc1ccc2c(c1C(=O)O)OB(O)[C@@H](Sc1ncns1)C2 [Compound 75, (3R)-2-hydroxy-7-methoxy-3-(1,2,4-thiadiazol-5-ylsulfanyl)-3,4-dihydro-1,2-benzoxaborinine-8-carboxylic acid] | > 100 nM | > 100 nM | < 1000 nM | X (Less than 0.1 μM) | < 100 nM | Y (0.1 μM to 1 μM) | < 100 nM | < 100 nM
13 | NCCOc1ccc2c(c1C(=O)O)OB(O)[C@@H](Sc1nnc(N)s1)C2 [Compound 79, (3R)-7-(2-aminoethoxy)-3-[(5-amino-1,3,4-thiadiazol-2-yl)sulfanyl]-2-hydroxy-3,4-dihydro-1,2-benzoxaborinine-8-carboxylic acid] | > 100 nM | > 100 nM | ≥ 1000 nM | X (Less than 0.1 μM) | < 100 nM | Y (0.1 μM to 1 μM) | > 1000 nM | < 100 nM
14 | NC(=O)COc1ccc2c(c1C(=O)O)OB(O)[C@@H](Sc1nnc(N)s1)C2 [Compound 80, (3R)-7-(2-amino-2-oxo-ethoxy)-3-[(5-amino-1,3,4-thiadiazol-2-yl)sulfanyl]-2-hydroxy-3,4-dihydro-1,2-benzoxaborinine-8-carboxylic acid] | > 100 nM | > 100 nM | < 1000 nM | X (Less than 0.1 μM) | < 100 nM | Y (0.1 μM to 1 μM) | 100 to 1000 nM | < 100 nM
15 | Nc1nnc(S[C@H]2Cc3ccc(OCC(=O)NC4CNC4)c(C(=O)O)c3OB2O)s1 [Compound 81, (3R)-3-[(5-amino-1,3,4-thiadiazol-2-yl)sulfanyl]-7-[2-(azetidin-3-ylamino)-2-oxo-ethoxy]-2-hydroxy-3,4-dihydro-1,2-benzoxaborinine-8-carboxylic acid] | > 100 nM | > 100 nM | ≥ 1000 nM | X (Less than 0.1 μM) | < 100 nM | Y (0.1 μM to 1 μM) | > 1000 nM | < 100 nM
16 | COc1ccc2c(c1C(=O)O)OB(O)[C@@H](Sc1nc(N)n[nH]1)C2 [Compound 82, (3R)-3-[(3-amino-1H-1,2,4-triazol-5-yl)sulfanyl]-2-hydroxy-7-methoxy-3,4-dihydro-1,2-benzoxaborinine-8-carboxylic acid] | < 10 nM | < 10 nM | < 1000 nM | X (Less than 0.1 μM) | < 100 nM | Y (0.1 μM to 1 μM) | 100 to 1000 nM | < 100 nM

From patent publication US10206937B2, “Boronic acid derivatives and therapeutic uses thereof” (Qpex Biopharma, Inc., priority 2014, dated 2019)
